Measurements: publication PMC10230504, “Versatile Chemo-Biocatalytic Cascade Driven by a Thermophilic and Irreversible C–C Bond-Forming α-Oxoamine Synthase” (ACS Sustainable Chemistry & Engineering, 2023)

Target: T1, ThAOS (Thermus thermophilus, UniProt Q5SHZ8)
T1 construct: gene TTHA1582; recombinant, codon-optimized clone (GenScript), expressed in E. coli BL21 (DE3), purified
T1 sequence (Q5SHZ8 2-395): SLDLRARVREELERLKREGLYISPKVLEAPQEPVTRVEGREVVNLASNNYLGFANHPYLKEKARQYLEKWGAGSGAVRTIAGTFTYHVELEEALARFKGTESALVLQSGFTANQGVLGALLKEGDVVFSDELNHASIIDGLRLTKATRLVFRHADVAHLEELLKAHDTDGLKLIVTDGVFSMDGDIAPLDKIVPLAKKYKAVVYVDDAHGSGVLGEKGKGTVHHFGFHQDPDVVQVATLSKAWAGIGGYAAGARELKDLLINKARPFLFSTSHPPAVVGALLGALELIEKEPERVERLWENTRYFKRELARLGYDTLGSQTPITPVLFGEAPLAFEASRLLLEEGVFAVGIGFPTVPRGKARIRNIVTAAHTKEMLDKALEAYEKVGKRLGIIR
Assay: DTNB assay of CoASH release; product confirmed by mass spectrometry
Format: biochemical
Details: co-substrate acyl-CoA; 50 °C

`NCC(=O)O` [Gly] was tested, and the “DTNB assay of CoASH release; product confirmed by mass spectrometry” value was “ThAOS was active with AAs (S)-2-aminobutyric acid (L-Aba), L-Ala, Gly and L-Ser”.
